Measurements as given in ChEMBL document CHEMBL2073998, “Piperine, a major constituent of black pepper, inhibits human P-glycoprotein and CYP3A4” (J Pharmacol Exp Ther, 2002).

How the values were obtained:
[1] = biological target: T1, ATP-dependent translocase ABCB1 (Homo sapiens, UniProt P08183); experiment: TP_TRANSPORTER: inhibition of Digoxin transepithelial transport (basal to apical) (Digoxin: 5 uM) in Caco-2 cells; type: functional, cell-based
[2] = biological target: T1, ATP-dependent translocase ABCB1; experiment: TP_TRANSPORTER: inhibition of Cyclosporin A transepithelial transport (basal to apical) (Cyclosporin A: 1 uM) in Caco-2 cells; type: functional, cell-based

T1 sequence (P08183 whole entry): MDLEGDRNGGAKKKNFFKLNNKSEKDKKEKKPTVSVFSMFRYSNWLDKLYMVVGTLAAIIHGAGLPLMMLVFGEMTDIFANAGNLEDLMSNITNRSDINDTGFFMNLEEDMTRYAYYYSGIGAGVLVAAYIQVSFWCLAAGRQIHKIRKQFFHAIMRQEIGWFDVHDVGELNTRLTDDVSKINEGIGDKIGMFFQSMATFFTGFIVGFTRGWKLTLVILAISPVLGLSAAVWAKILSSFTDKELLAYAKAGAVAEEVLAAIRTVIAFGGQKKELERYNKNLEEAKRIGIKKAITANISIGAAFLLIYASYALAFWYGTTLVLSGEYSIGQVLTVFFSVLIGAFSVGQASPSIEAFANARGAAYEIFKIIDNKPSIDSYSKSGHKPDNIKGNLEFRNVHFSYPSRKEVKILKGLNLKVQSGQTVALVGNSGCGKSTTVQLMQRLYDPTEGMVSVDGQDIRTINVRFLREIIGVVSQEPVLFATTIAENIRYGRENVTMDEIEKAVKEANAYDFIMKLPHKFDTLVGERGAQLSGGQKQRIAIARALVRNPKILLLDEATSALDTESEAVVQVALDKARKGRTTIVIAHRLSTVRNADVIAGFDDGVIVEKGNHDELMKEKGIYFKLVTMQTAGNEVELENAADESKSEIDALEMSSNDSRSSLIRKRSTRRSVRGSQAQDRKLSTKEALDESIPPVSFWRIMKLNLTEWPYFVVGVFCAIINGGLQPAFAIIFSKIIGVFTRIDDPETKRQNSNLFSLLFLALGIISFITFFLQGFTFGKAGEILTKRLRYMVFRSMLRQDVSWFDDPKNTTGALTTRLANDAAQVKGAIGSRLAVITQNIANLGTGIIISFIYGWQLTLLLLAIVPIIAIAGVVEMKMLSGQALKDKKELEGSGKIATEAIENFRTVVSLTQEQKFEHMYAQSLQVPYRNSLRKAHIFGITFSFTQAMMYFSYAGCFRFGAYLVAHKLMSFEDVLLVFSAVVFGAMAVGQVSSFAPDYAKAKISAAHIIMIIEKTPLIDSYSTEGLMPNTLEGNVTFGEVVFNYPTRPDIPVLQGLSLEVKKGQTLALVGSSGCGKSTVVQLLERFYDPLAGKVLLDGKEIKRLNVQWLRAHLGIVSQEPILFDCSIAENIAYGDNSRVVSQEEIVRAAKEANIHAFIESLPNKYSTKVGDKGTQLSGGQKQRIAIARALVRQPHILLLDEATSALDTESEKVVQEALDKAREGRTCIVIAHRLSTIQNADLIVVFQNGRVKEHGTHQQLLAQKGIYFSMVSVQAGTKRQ

O=C(/C=C/C=C/c1ccc2c(c1)OCO2)N1CCCCC1 [PIPERINE]
IC50 [1]: 15.5 µM | IC50 [2]: 74.1 µM
